Assay: Entrapment and release of bromocresol green from particle aggregates in PBS, UV-Visible absorption
Assay type: physicochemical
Settings: 1 mg dye in 2 mL Tween 80 stabilized pHEMA particles, 36 mg/mL, injected into PBS; discrete particles and 50:50 mixtures of two sizes
Protocol: Injection of a dispersion of particles with a small molecule dissolved in the suspension medium forms an aggregate that traps some of the small molecule. In a typical experiment, 1 mg of bromocresol green dye was dissolved into 2 mL of a suspension of Tween 80 stabilized pHEMA particles (725 nm in diameter) with a hydrated polymer mass of 36 mg/mL. The dispersed particles and dye were injected into a solution of phosphate buffered saline. After 10 minutes of aggregation, the solution was shaken at 10 cycles per second to insure adequate mixing. 2 mL samples of supernatant were taken and characterized by UV-Visible absorption spectroscopy. […] In both cases, most of the small molecule is released within the first 3-5 hours, however, the burst effect is smaller in the mixed aggregate system.

Cc1c(C2(c3cc(Br)c(O)c(Br)c3C)OS(=O)(=O)c3ccccc32)cc(Br)c(O)c1Br [bromocresol green]
time within which most of the small molecule is released: 3 to 5 h

From patent US7811605B2, “Method of formation of shape-retentive aggregates of gel particles and their uses” (ULURU Inc., priority 2002, dated 2010)
